The subject of one data set is PANC1 cell line. In words: MTT anti-proliferative assay, PANC1. The class given is cell-based, human. To be noted: for IC50: MTT, 48 h exposure, mean ± S.D., 3 separate experiments. The procedure:
(§1) 1. Anti-proliferative activity against HepG2 and PANC1 cancer cell lines
(§2) American Type Culture Collection (ATCC). Cells lines were maintained as monolayers in Dulbecco’s Modified Eagle’s Medium (DMEM) supplemented with 10% FBS, 2 mM L-glutamine, 100 U/ml penicillin and 100µg/ml streptomycin sulfate. Cells were sub-cultured with trypsine /EDTA solution, counted with haemocytometer and plated onto 96-well plates (5000 cells/well) and left overnight to form a semi-confluent monolayer. Cell monolayers were treated in quadrates with vehicle (DMSO, 0.1% v/v), and test samples […]
end of exposure, MTT solution in PBS (5 mg/ml) was then added to all well including no cell blank and left to incubate for 90 min. The formation of formazan crystals were visually confirmed using phase contract microscopy. DMSO (100 µl/well) was added to dissolve the formazan crystals with shaking for 10 min after which the absorbance was read at 590 nm against no cell blanks on a FLuo Star Optima microplate reader (BMG technologies, Germany). Cell proliferation was calculated comparing the OD values of the DMSO control wells and those of the samples represented as % proliferation to the control. Dose-response experiment was performed on samples producing > or =50% loss of cell […]
(§3) vehicle control) were calculated using non-linear regression curve fitting of the dose response plots on GraphPad Prism V.6.0 software.
(In general: Formazan colour is commonly taken as a measure of viable cells.)

In another data set the test system is HepG2 cell line. In words: MTT anti-proliferative assay, HepG2. The class given is cell-based, human. To be noted: mean ± S.D., 3 separate experiments. Here is the method:
as §1, §2
end of exposure, MTT solution in PBS (5 mg/ml) was then added to all well including no cell blank and left to incubate for 90 min. The formation of formazan crystals were visually confirmed using phase contract microscopy. DMSO (100 µl/well) was added to dissolve the formazan crystals with shaking for 10 min after which the absorbance was read at 590 nm against no cell blanks on a FLuo Star Optima microplate reader (BMG technologies, Germany). Cell proliferation was calculated comparing the OD values of the DMSO control wells and those of the samples represented as % proliferation to the control. Dose-response experiment was performed on samples producing > or =50% loss of cell proliferation using five serial 2-fold dilutions (50, 25, 12.5, 6.25 and 3.125 µM) of the […]
as §3

A short description of data set [1]: Cytotoxicity against non-tumorigenic Vero cell line. It is filed as cell-based. The settings on record: African green monkey, Vero cells (non-tumorigenic), read-out: IC50 Vero (cytotoxic activity).
The test system of another data set is Vero cell line. The data set is described as above. The class given is cell-based. To be noted: read-out: IC50 Vero (cytotoxic activity).
The target of data set [2] is T1, VEGFR-2 (Homo sapiens, UniProt P35968). In words: biochemical.
T1 sequence (P35968 20-1356): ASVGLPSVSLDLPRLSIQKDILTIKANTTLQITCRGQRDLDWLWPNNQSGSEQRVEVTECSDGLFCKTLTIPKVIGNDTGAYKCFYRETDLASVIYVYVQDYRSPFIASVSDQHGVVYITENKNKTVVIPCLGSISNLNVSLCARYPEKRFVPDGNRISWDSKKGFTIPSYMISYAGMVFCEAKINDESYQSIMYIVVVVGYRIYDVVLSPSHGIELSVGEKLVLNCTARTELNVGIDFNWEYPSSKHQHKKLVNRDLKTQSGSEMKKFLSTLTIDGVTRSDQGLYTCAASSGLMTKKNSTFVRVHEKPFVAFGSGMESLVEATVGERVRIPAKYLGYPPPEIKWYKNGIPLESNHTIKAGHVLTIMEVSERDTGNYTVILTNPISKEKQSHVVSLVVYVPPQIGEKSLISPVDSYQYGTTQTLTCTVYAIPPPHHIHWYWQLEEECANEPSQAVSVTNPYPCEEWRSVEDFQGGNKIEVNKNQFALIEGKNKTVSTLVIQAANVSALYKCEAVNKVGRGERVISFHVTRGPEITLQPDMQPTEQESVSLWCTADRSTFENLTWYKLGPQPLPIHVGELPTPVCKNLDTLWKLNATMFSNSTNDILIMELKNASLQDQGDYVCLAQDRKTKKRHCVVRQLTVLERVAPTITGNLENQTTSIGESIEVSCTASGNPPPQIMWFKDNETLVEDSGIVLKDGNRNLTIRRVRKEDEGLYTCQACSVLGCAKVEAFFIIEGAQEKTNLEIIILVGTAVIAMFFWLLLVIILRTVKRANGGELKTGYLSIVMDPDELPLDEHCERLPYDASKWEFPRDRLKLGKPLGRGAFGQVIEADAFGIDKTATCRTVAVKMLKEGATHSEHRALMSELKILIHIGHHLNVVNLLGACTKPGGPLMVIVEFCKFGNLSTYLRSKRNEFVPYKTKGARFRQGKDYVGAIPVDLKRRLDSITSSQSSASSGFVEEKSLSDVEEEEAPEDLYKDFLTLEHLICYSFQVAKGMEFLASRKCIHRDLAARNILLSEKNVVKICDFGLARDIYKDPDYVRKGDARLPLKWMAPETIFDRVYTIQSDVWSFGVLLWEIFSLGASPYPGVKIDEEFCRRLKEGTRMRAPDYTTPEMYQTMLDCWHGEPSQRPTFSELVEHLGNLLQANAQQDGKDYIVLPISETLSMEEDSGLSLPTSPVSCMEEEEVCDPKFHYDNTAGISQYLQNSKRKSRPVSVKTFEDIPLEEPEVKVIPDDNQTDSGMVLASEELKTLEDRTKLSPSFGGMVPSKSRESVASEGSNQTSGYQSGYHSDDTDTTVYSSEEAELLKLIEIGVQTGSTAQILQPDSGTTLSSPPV
Description: (§4) In brief, the master mixture was produced (25 μL per well) and poured into
(§5) each well. Each well received 5 μL of inhibitor solution designated as "Test Inhibitor". The "Positive Control" and "Blank" groups received 5 μL of the same solution without the
(§6) inhibitor (Inhibitor buffer). In order to prepare 3 mL of kinase buffer, 600 μL of kinase
(§7) buffer were combined with 2400 μL of water. The blank wells received 20 μL of kinase
(§8) buffer. The amount of VEGFR-2 required for the test was measured and the enzyme was
(§9) diluted to 1 ng/ μL with kinase buffer. 20 μL of diluted VEGFR-2 enzymes was added to
(§10) the wells designated as "Test Inhibitor Control” and “Positive Control” to start the reaction
(§11) and the mixtures were incubated at 30 °C for 45 minutes. After the 45 minutes, each well received 50 μL of KinaseGlo Max reagent and the plate was incubated at room temperature
(§12) for 15 minutes. The luminescence was measured with a microplate reader.
In data set [3] the target is T1, VEGFR-2. In words: VEGFR-2 Kinase Assay Kit (BPS Bioscience).
Description: as §4, §5, §6, §7, §8, §9, §10, §11, §12
In the next data set the test system is HepG2. More on the design: method as in doi:10.1016/j.molstruc.2021.131832. The settings on record: hepatocellular cell line HepG2; cited from earlier work.
For data set [4], the target named is T1, VEGFR-2. Also on record: purchased BPS Bioscience 40325; method as in doi:10.1016/j.molstruc.2021.131832. To be noted: cited from earlier work.
Data set [5] concerns the target T1, VEGFR-2. More on the design: purchased BPS Bioscience 40325; method as in PMID 35217379. The settings on record: cited from earlier work.
[6] abbreviates: Homo sapiens, HepG2, 48 h exposure.

Where two headings read alike, the source gives them in different places.

By IC50 is commonly meant the concentration that gives 50% inhibition. In general, melting point refers to the temperature of the solid-liquid transition.

As to `CC(=O)Nc1ccc(-c2nc(C(=O)NN=C3C(=O)Nc4ccccc43)nn2-c2ccc(F)cc2)cc1` [11a, N-{4-[1-(4-Fluorophenyl)-3-{N′-[2-oxo-2,3-dihydro-1H-indol-3-ylidene]hydrazinecarbonyl}-1H-1,2,4-triazol-5-yl]phenyl}acetamide], the IC50 in the data set on PANC1 cell line (Homo sapiens, PANC-1) worked out at 4290 ± 100 nM; in the data set with HepG2 cell line (setting [6]), 2060 ± 30 nM.

Consider `CC(=O)Nc1ccc(-c2nc(C(=O)NN=C3C(=O)Nc4ccc(F)cc43)nn2-c2ccc(F)cc2)cc1` [11b, N-[4-(3-{N′-[5-Fluoro-2-oxo-2,3-dihydro-1H-indol-3-ylidene]hydrazinecarbonyl}-1-(4-fluorophenyl)-1H-1,2,4-triazol-5-yl)phenyl]acetamide], for which the IC50 in the data set with PANC1 cell line (Homo sapiens, PANC-1) came to 1740 ± 20 nM; in the data set with HepG2 cell line (setting [6]), 1170 ± 30 nM.

On to `CC(=O)Nc1ccc(-c2nc(C(=O)NN=C3C(=O)Nc4ccc(Cl)cc43)nn2-c2ccc(F)cc2)cc1` [11c, N-[4-(3-{N′-[5-Chloro-2-oxo-2,3-dihydro-1H-indol-3-ylidene]hydrazinecarbonyl}-1-(4-fluorophenyl)-1H-1,2,4-triazol-5-yl)phenyl]acetamide], for which the IC50 with PANC1 cell line (Homo sapiens, PANC-1) stood at 980 ± 60 nM; with HepG2 cell line (setting [6]), 2210 ± 30 nM.

On to `CC(=O)Nc1ccc(-c2nc(C(=O)NN=C3C(=O)Nc4ccc(Br)cc43)nn2-c2ccc(F)cc2)cc1` [11d, N-[4-(3-{N′-[5-Bromo-2-oxo-2,3-dihydro-1H-indol-3-ylidene]hydrazinecarbonyl}-1-(4-fluorophenyl)-1H-1,2,4-triazol-5-yl)phenyl]acetamide], for which the IC50 was determined as 1160 ± 20 nM with PANC1 cell line (Homo sapiens, PANC-1); 730 ± 20 nM in the data set with HepG2 cell line (setting [6]); 11700 ± 930 nM in data set [1]; 8350 ± 620 nM in the data set with Vero cell line; 16.3 ± 0.42 nM against VEGFR-2 [2]. Moreover, on VEGFR-2 [3] (5-Br versus 5-OCH3 (11e)), the “fold enhancement of efficacy against VEGFR-2 compared to 11e” value is reported as “approximately 3 fold”.

As for `COc1ccc2c(c1)C(=NNC(=O)c1nc(-c3ccc(NC(C)=O)cc3)n(-c3ccc(F)cc3)n1)C(=O)N2` [11e, N-{4-[1-(4-Fluorophenyl)-3-{N′-[5-methoxy-2-oxo-2,3-dihydro-1H-indol-3-ylidene]hydrazinecarbonyl}-1H-1,2,4-triazol-5-yl]phenyl}acetamide], the IC50 with PANC1 cell line (Homo sapiens, PANC-1) was determined as 2220 ± 70 nM; in the data set on HepG2 cell line (setting [6]), 760 ± 20 nM; in data set [1], 8350 ± 620 nM; with Vero cell line, 11700 ± 930 nM; against VEGFR-2 [2] it was 48.4 ± 0.39 nM.

For the molecule `CC(=O)Nc1ccc(-c2nc(C(=O)NN=C3C(=O)Nc4ccc([N+](=O)[O-])cc43)nn2-c2ccc(F)cc2)cc1` [11f, N-{4-[1-(4-Fluorophenyl)-3-{N′-[5-nitro-2-oxo-2,3-dihydro-1H-indol-3-ylidene]hydrazinecarbonyl}-1H-1,2,4-triazol-5-yl]phenyl}acetamide], the IC50 in the data set with PANC1 cell line (Homo sapiens, PANC-1) was 230 ± 10 nM; with HepG2 cell line (setting [6]), 2410 ± 40 nM.

Consider `CC(=O)Nc1ccc(-c2nc(C(=O)NN=C3C(=O)Nc4ccccc43)nn2-c2ccc(Cl)cc2)cc1` [11g, N-{4-[1-(4-Chlorophenyl)-3-{N′-[2-oxo-2,3-dihydro-1H-indol-3-ylidene]hydrazinecarbonyl}-1H-1,2,4-triazol-5-yl]phenyl}acetamide], for which the IC50 was determined as 770 ± 20 nM with PANC1 cell line (Homo sapiens, PANC-1); 710 ± 10 nM with HepG2 cell line (setting [6]); 10600 ± 710 nM in [1].

`CC(=O)Nc1ccc(-c2nc(C(=O)NN=C3C(=O)Nc4ccc(F)cc43)nn2-c2ccc(Cl)cc2)cc1` [11h, N-{4-[1-(4-Chlorophenyl)-3-{N′-[5-fluoro-2-oxo-2,3-dihydro-1H-indol-3-ylidene]hydrazinecarbonyl}-1H-1,2,4-triazol-5-yl]phenyl}acetamide]: the melting point was > 300 °C. This molecule came in with an IC50 in the data set with PANC1 cell line (Homo sapiens, PANC-1) of 220 ± 10 nM. Moreover, the “fold improvement of efficacy against PANC1 compared to 11b” value with PANC1 cell line (versus fluorinated-phenyl counterpart 11b) was 8 fold. 1270 ± 40 nM corresponded to half-maximal inhibition in the data set on HepG2 cell line (setting [6]) (IC50).

Take `CC(=O)Nc1ccc(-c2nc(C(=O)NN=C3C(=O)Nc4ccc(Cl)cc43)nn2-c2ccc(Cl)cc2)cc1` [11i, N-[4-(3-{N′-[5-Chloro-2-oxo-2,3-dihydro-1H-indol-3-ylidene]hydrazinecarbonyl}-1-(4-chlorophenyl)-1H-1,2,4-triazol-5-yl)phenyl]acetamide]: the IC50 with PANC1 cell line (Homo sapiens, PANC-1) was 3750 ± 90 nM; in the data set on HepG2 cell line (setting [6]) it was 4490 ± 150 nM.

Take `CC(=O)Nc1ccc(-c2nc(C(=O)NN=C3C(=O)Nc4ccc(Br)cc43)nn2-c2ccc(Cl)cc2)cc1` [11j, N-[4-(3-{N′-[5-Bromo-2-oxo-2,3-dihydro-1H-indol-3-ylidene]hydrazinecarbonyl}-1-(4-chlorophenyl)-1H-1,2,4-triazol-5-yl)phenyl]acetamide]: the IC50 with PANC1 cell line (Homo sapiens, PANC-1) came to 1680 ± 60 nM; in the data set on HepG2 cell line (setting [6]), 1010 ± 20 nM.

Consider `COc1ccc2c(c1)C(=NNC(=O)c1nc(-c3ccc(NC(C)=O)cc3)n(-c3ccc(Cl)cc3)n1)C(=O)N2` [11k, N-{4-[1-(4-Chlorophenyl)-3-{N′-[5-methoxy-2-oxo-2,3-dihydro-1H-indol-3-ylidene]hydrazinecarbonyl}-1H-1,2,4-triazol-5-yl]phenyl}acetamide], for which the IC50 with PANC1 cell line (Homo sapiens, PANC-1) was 1780 ± 40 nM; with HepG2 cell line (setting [6]), 730 ± 10 nM; in [1], 13200 ± 1090 nM; on VEGFR-2 [2], 41.3 ± 0.31 nM. Moreover, the “times increase of VEGFR-2 activity compared to 11g” value at VEGFR-2 [3] (versus unsubstituted indolin-2-one 11g) was “approximately 3 times”.

With `CC(=O)Nc1ccc(-c2nc(C(=O)NN=C3C(=O)Nc4ccc([N+](=O)[O-])cc43)nn2-c2ccc(Cl)cc2)cc1` [11l, N-{4-[1-(4-Chlorophenyl)-3-{N′-[5-nitro-2-oxo-2,3-dihydro-1H-indol-3-ylidene]hydrazinecarbonyl}-1H-1,2,4-triazol-5-yl]phenyl}acetamide], the IC50 in the data set with PANC1 cell line (Homo sapiens, PANC-1) stood at 170 ± 10 nM; with HepG2 cell line (setting [6]) it was 1730 ± 60 nM.

For the molecule `CC(=O)Nc1ccc(-c2nc(C(=O)NN=C3C(=O)N(C)c4ccccc43)nn2-c2ccc(F)cc2)cc1` [14a, N-{4-[1-(4-Fluorophenyl)-3-{N′-[1-methyl-2-oxo-2,3-dihydro-1H-indol-3-ylidene]hydrazinecarbonyl}-1H-1,2,4-triazol-5-yl]phenyl}acetamide], the IC50 with PANC1 cell line (Homo sapiens, PANC-1) turned out to be 4050 ± 100 nM; with HepG2 cell line (setting [6]), 1630 ± 20 nM.

Take `CC(=O)Nc1ccc(-c2nc(C(=O)NN=C3C(=O)N(Cc4ccccc4)c4ccc(Br)cc43)nn2-c2ccc(F)cc2)cc1` [14b, N-[4-(3-{N′-[1-Benzyl-5-bromo-2-oxo-2,3-dihydro-1H-indol-3-ylidene]hydrazinecarbonyl}-1-(4-fluorophenyl)-1H-1,2,4-triazol-5-yl)phenyl]acetamide]: the IC50 with PANC1 cell line (Homo sapiens, PANC-1) was 760 ± 40 nM; in the data set on HepG2 cell line (setting [6]), 980 nM.

For the molecule `CC(=O)Nc1ccc(-c2nc(C(=O)NN=C3C(=O)N(C)c4ccccc43)nn2-c2ccc(Cl)cc2)cc1` [14c, N-{4-[1-(4-Chlorophenyl)-3-{N′-[1-methyl-2-oxo-2,3-dihydro-1H-indol-3-ylidene]hydrazinecarbonyl}-1H-1,2,4-triazol-5-yl]phenyl}acetamide], the IC50 was 200 nM with PANC1 cell line (Homo sapiens, PANC-1); 580 ± 10 nM in the data set on HepG2 cell line (setting [6]); 7920 ± 480 nM in data set [1].

As for `CC(=O)Nc1ccc(-c2nc(C(=O)NN=C3C(=O)N(Cc4ccccc4)c4ccc(Br)cc43)nn2-c2ccc(Cl)cc2)cc1` [14d, N-[4-(3-{N′-[1-Benzyl-5-bromo-2-oxo-2,3-dihydro-1H-indol-3-ylidene]hydrazinecarbonyl}-1-(4-chlorophenyl)-1H-1,2,4-triazol-5-yl)phenyl]acetamide], the IC50 is 420 ± 10 nM in the data set with PANC1 cell line (Homo sapiens, PANC-1) and 920 ± 20 nM in the data set on HepG2 cell line (setting [6]).

In the case of `COc1cccc2c1C(=O)c1c(O)c3c(c(O)c1C2=O)C[C@@](O)(C(=O)CO)C[C@@H]3O[C@H]1C[C@H](N)[C@H](O)[C@H](C)O1` [Dox., reference compound], the results for the IC50 in the data set on PANC1 cell line and in the data set on HepG2 cell line (48 h exposure) were 190 ± 10 nM and 430 ± 20 nM, respectively.

For the molecule `CCOC(=O)/C(=N\Nc1ccc(Cl)cc1)Sc1nnc(C(F)(F)F)n1/N=C/c1ccc(OC)cc1` [II], the IC50 in the data set with HepG2 is 10000 nM; at VEGFR-2 [4], 74 nM.

`Cc1ccc(NC(=O)CSc2nnc(Cn3c(=O)c(C)nc4ccccc43)n2C)cc1` [I]: the IC50 at VEGFR-2 [5] is 60 nM.

Values taken from PMC10820444, “1,2,4-Triazole-Tethered Indolinones as New Cancer-Fighting Small Molecules Targeting VEGFR-2: Synthesis, Biological Evaluations and Molecular Docking” (Pharmaceuticals, 2024).
